Source: US8232067B2, “Disrupting FCRN-albumin interactions” (Brigham & Women's Hospital, Inc., priority 2009, dated 2012)

Key:
[1] = test system: Balb/c mice; test: Mortality assay (1); format: in vivo; conditions: 12 mg of acetaminophen; mice deficient in FcRn compared to wild-type Balb/c mice
Description: Wild-type Balb/c mice and Balb/c mice deficient in FcRn were administered 12 mg of acetaminophen. The dose administered is equivalent to 42 g in a 70 kg human (84 tabs of 500 mg extra strength Tylenol™ (acetaminophen)).

[2] = Serum and bile measurements after tail vein infusion (ELISA); format: in vivo; conditions: FcRn deficient mice vs wild-type, 24 hours after infusion
Description: Human IgG and rat albumin were administered via the tail vein to wild-type (WT) or FcRn deficient (−/−) mice 24 hours prior to the harvest of serum and bile. For serum and bile measurements, mice were euthanized before blood was removed via the heart and the bile was removed via the gallbladder. Concentration of IgG and albumin were measured by ELISA. Similar results were obtained from bile collected via common bile duct cannulation.
After 24 hours, blood/serum and gallbladder bile were removed as described in Example 1.

Molecule | mortality [1] | levels of rat albumin in the bile [2]
CC(=O)Nc1ccc(O)cc1 [acetaminophen] | decreased mortality | –
rat albumin: Rat serum albumin administered via the tail vein to mice | – | elevated levels
